Data published in US20140348756A1, “WATER-FREE FORMULATIONS HAVING A COOLING EFFECT” (Henkel AG & Co. KGaA, priority 2011, published 2014).

System: test persons
Assay: Measuring the cooling effect: antiperspirant aerosols evaluated by test persons
Type: in vivo
From the text: Measuring the Cooling Effect
Inventive antiperspirant aerosols were produced with various cooling agents and evaluated by test persons. It was shown that the cooling agent L-menthol is employable only in very small quantities, namely in quantities below 0.1 wt %, relative to the weight of the gasified aerosol formulation, corresponding to a weight fraction of 0.66 wt %, relative to the weight of the formulation, without taking into account the propellant. […] The skin compatibility in the armpit area was also worsened by menthol above 0.1 wt %, relative to the weight of the gasified aerosol formulation, corresponding to a weight fraction of 0.66 wt %, relative to the weight of the formulation, without taking into account the propellant. […] The proportion of nonresponders, 47%, was too high, however, and could not be reduced by increasing the concentration of L-menthol without the appearance of the cited inacceptable side effects.
The formulation B including 1.0 wt % of an extract of Rumex acetosa leaf in solution/suspension in isopropyl myristate with a dry substance weight of 0.5 wt %, relative to the weight of the raw material itself, was also found to be cooling by 57% of the test persons. […] The amount of dry substance of the oily Rumex acetosa leaf extract here amounted to 0.033 wt %, relative to the weight of the inventive composition without propellant. […]

- employable quantity of the cooling agent (relative to the weight of the formulation, without taking into account the propellant): < 0.66 wt %
- employable quantity of the cooling agent (relative to the weight of the gasified aerosol formulation): below 0.1 wt %
SMILES: CC(C)[C@@H]1CC[C@@H](C)C[C@H]1O [L-menthol]
